Consider 15 molecules from patent US10882859B2, “Kinase inhibitors” (Topivert Pharma Limited, priority 2015, dated 2021).

Read-outs that look alike come from different tables or passages of the source.

Data set [1] relates to CD3/IL2 stimulated PBMC cells. In words: IFNγ release from CD3/IL2 stimulated PBMC cells. The data set is classed as cell-based. The settings on record: Homo sapiens, CD3/IL2 stimulation, 48 h, ELISA. As for the experimental part:
PBMCs from healthy subjects are separated from whole blood using a density gradient (Lymphoprep, Axis-Shield Healthcare). Cells are added to a 96 well plate, and compound at the desired concentration added 2 hours prior to stimulation with a mixture of monoclonal antibody to CD3 (1 μg/ml, eBioscience) and human recombinant IL2 (10 ng/ml, Peprotech). After 48 hours incubation under normal tissue culture conditions, supernatants are collected and IFNγ release determined by Sandwich ELISA (Duo-set, R&D System). The IC50 is determined from the dose response curve.

Data set [2] deals with Jurkat cells. In words: Cell cytotoxicity assay (propidium iodide, flow cytometry). The data set is classed as cell-based, human. The settings on record: 24 h. As for the experimental part: 1×10^5 Jurkat cells (immortalised human T lymphocytes) are added to the appropriate number of wells of a 96 well plate in 100 μL of media (RPMI supplemented with 10% foetal bovine serum). 1 μL of DMSO control (final concentration 1.0% v/v) or test compound (final concentration 20, 5 or 1 μg/mL) is added to the wells and incubated at 37° C., 5% CO2. After 24 hours, the plate is centrifuged at 1200 rpm for 3 minutes and the supernatant discarded. Cells are then resuspended in 150 μL (final concentration 7.5 μg/mL) of propidium iodide (PI) in PBS and incubated at 37° C., 5% CO2 for 15 minutes. After 15 minutes, cells are analysed by flow cytometry (BD accuri) using the FL3 window. The % viability is calculated as the % of cells that are PI negative in the test wells normalised to the DMSO control.
In general terms: Flow cytometry measures light scatter and fluorescence of single cells or particles in a stream.

The nature of data set [3]: Systemic pharmacokinetics and total colon tissue distribution after single oral administration. The data set is classed as in vivo, male C57BL/6 mice. Particulars: mice, oral 10 mg/kg; for concentration at 0.5 h / concentration at 1 h / concentration at 2 h / concentration at 4 h / concentration at 6 h / concentration at 8 h / concentration at 12 h / concentration at 24 h: male, C57BL/6, mouse. As for the experimental part: Studies were conducted by Sai Life Sciences (Hinjewadi, Pune, India) to investigate the systemic pharmacokinetics and total colon tissue distribution of compounds of the invention following a single oral administration in male C57BL/6 mice.
A group of twenty four male mice were administered with a solution of test compound formulated at a dose of 10 mg/10 mL/kg in aqueous hydroxypropyl-β-cyclodextrin (20% w/v in water). Blood samples ([…]) were collected from retro-orbital plexus of each mouse under light isoflurane anaesthesia such that the samples were obtained at 0.5, 1, 2, 4, 6, 8, 12 and 24 hr. The blood samples were collected from a set of three mice at each time point in a labeled micro centrifuge tube containing K2EDTA as anticoagulant. Plasma samples were separated by centrifugation at 4000 rpm for 10 min and stored below −70° C. until bioanalysis. After collection of blood sample, animals were humanely euthanized by carbon dioxide asphyxiation to collect total colon tissues. The colons were flushed with cold PBS (pH7.4) to remove contents. The total colon tissues were homogenized with cold PBS (pH7.4) of twice the weight of colon tissue and stored below −70° C. Total volume was three times the total colon tissue weights. All samples were processed for analysis by protein precipitation using acetonitrile and analyzed with a fit-for-purpose LC-MS/MS method. Pharmacokinetic parameters were calculated using the non-compartmental analysis tool of Phoenix WinNonlin® (Version 6.3).

Setting [4] is: total colon tissue, total colon, read-out: Mean total colon level.
Setting [5] is: plasma, read-out: Mean plasma concentration.

A word on the IC50: it is the point on the concentration scale where inhibition reaches its midpoint. A higher IC50 goes with lower potency.

Molecule `CCc1cc(O)c(F)cc1-c1ccc2c(-c3nc4c([nH]3)CCN(S(=O)(=O)N3CCCC3)C4)n[nH]c2c1` [Example 6(d), 5-ethyl-2-fluoro-4-(3-(5-(pyrrolidin-1-ylsulfonyl)-4,5,6,7-tetrahydro-1H-imidazo[4,5-c]pyridin-2-yl)-1H-indazol-6-yl)phenol] came in with an IC50 in data set [1] of 0.0083 µM. For the same molecule, in data set [2], the “% viability at 1 μg/mL” value is given as 74%.

`CCc1cc(O)c(F)cc1-c1ccc2c(-c3nc4c([nH]3)CCN(C(=O)N3CCN(CC)C(=O)C3=O)C4)n[nH]c2c1` [Example 2(c), 1-ethyl-4-(2-(6-(2-ethyl-5-fluoro-4-hydroxyphenyl)-1H-indazol-3-yl)-4,5,6,7-tetrahydro-1H-imidazo[4,5-c]pyridine-5-carbonyl)piperazine-2,3-dione] yielded an IC50 in data set [1] of 0.129 µM. Also, in data set [2], the “% viability at 1 μg/mL” value was 99%.

Take `CCc1cc(O)c(F)cc1-c1ccc2c(-c3nc4c([nH]3)CCN(S(=O)(=O)N3CCOCC3)C4)n[nH]c2c1` [Example 6(e), 5-ethyl-2-fluoro-4-(3-(5-(morpholinosulfonyl)-4,5,6,7-tetrahydro-1H-imidazo[4,5-c]pyridin-2-yl)-1H-indazol-6-yl)phenol]: the IC50 in data set [1] turned out to be 0.0047 µM. The “% viability at 1 μg/mL” value in data set [2] is reported as 64%.

On to `CCc1cc(O)c(F)cc1-c1ccc2c(-c3nc4c([nH]3)CCN(C(=O)N3CCc5ccccc53)C4)n[nH]c2c1` [Example 2(b), (2-(6-(2-ethyl-5-fluoro-4-hydroxyphenyl)-1H-indazol-3-yl)-1,4,6,7-tetrahydro-5H-imidazo[4,5-c]pyridin-5-yl)(indolin-1-yl)methanone], for which, in data set [1], the half-inhibitory concentration (IC50) came to 0.0313 µM.

Molecule `CCc1cc(O)c(F)cc1-c1ccc2c(-c3nc4c([nH]3)CCN(S(=O)(=O)N3CCC(C(=O)NC)CC3)C4)n[nH]c2c1` [Example 6(b), 1-((2-(6-(2-ethyl-5-fluoro-4-hydroxyphenyl)-1H-indazol-3-yl)-6,7-dihydro-1H-imidazo[4,5-c]pyridin-5(4H)-yl)sulfonyl)-N-methylpiperidine-4-carboxamide] came in with an IC50 in data set [1] of 0.101 µM.

`CCc1cc(O)c(F)cc1-c1ccc2c(-c3nc4c([nH]3)CN(C(=O)Nc3cccc5nsnc35)CC4)n[nH]c2c1` [Example 4(e), N-(benzo[c][1,2,5]thiadiazol-4-yl)-2-(6-(2-ethyl-5-fluoro-4-hydroxyphenyl)-1H-indazol-3-yl)-6,7-dihydro-1H-imidazo[4,5-c]pyridine-5(4H)-carboxamide] gave an IC50 in data set [1] of 0.0309 µM.

As for `CCc1cc(O)c(F)cc1-c1ccc2c(-c3nc4c([nH]3)CCN(C(=O)c3cnc(N5CCCCC5)cn3)C4)n[nH]c2c1` [Reference Compound, reference compound], the “% viability at 1 μg/mL” value in data set [2] stood at 49%. In data set [3] (setting [4]), the concentration at 0.5 h stood at 344 ng/g, the concentration at 1 h came out at 102 ng/g, the concentration at 2 h is 2370 ng/g and the concentration at 4 h amounted to 2970 ng/g. For the same molecule, in data set [3] (setting [4]), the concentration at 6 h was found to be 201 ng/g, the concentration at 8 h was found to be 2560 ng/g, the concentration at 12 h came to 3230 ng/g and the concentration at 24 h amounted to 16.6 ng/g. Also, in data set [3] (setting [5]), the concentration at 0.5 h was determined as 5.2 ng/mL, the concentration at 1 h turned out to be 12.8 ng/mL, the concentration at 2 h came out at 2.2 ng/mL and the concentration at 4 h worked out at 14.4 ng/mL. For the same molecule, in data set [3] (setting [5]), the concentration at 6 h was 114 ng/mL, the concentration at 8 h was determined as 95 ng/mL, the concentration at 12 h was 0 ng/mL and the concentration at 24 h stood at 0 ng/mL. Moreover, the “Colonic exposure AUC0-24 h” value in data set [3] (total colon) is listed as 43,739 h·ng/g.

`CCc1cc(O)c(F)cc1-c1ccc2c(-c3nc4c([nH]3)CCN(C(=O)Nc3ccc(S(C)(=O)=O)cc3)C4)n[nH]c2c1` [Example 4(b), 2-(6-(2-ethyl-5-fluoro-4-hydroxyphenyl)-1H-indazol-3-yl)-N-(4-(methylsulfonyl)phenyl)-6,7-dihydro-1H-imidazo[4,5-c]pyridine-5(4H)-carboxamide] yielded an IC50 in data set [1] of 0.0548 µM.

`CCc1cc(O)c(F)cc1-c1ccc2c(-c3nc4c([nH]3)CCN(C(=O)NCC3CCOCC3)C4)n[nH]c2c1` [Example 3, 2-(6-(2-Ethyl-5-fluoro-4-hydroxyphenvl)-1H-indazol-3-yl)-N-((tetrahydro-2H-byran-4-yl)methyl)-6,7-dihydro-1H-imidazo[4,5-c]pyridine-5(4)-carboxamide] showed an IC50 in data set [1] of 0.0195 µM. In addition, the “% viability at 1 μg/mL” value in data set [2] is reported as 91%.

In data set [1], `CCc1cc(O)c(F)cc1-c1ccc2c(-c3nc4c([nH]3)CCN(C(=O)Nc3ccccc3)C4)n[nH]c2c1` [Example 4(f), 2-(6-(2-ethyl-5-fluoro-4-hydroxyphenyl)-1H-indazol-3-yl)-N-phenyl-6,7-dihydro-1H-imidazo[4,5-c]pyridine-5(4H)-carboxamide] displayed an IC50 of 0.0196 µM.

In data set [1], `CCc1cc(O)c(F)cc1-c1ccc2c(-c3nc4c([nH]3)CCN(C(=O)Nc3c(C)noc3C)C4)n[nH]c2c1` [Example 4(c), N-(3,5-dimethylisoxazol-4-yl)-2-(6-(2-ethyl-5-fluoro-4-hydroxyphenyl)-1H-indazol-3-yl)-6,7-dihydro-1H-imidazo[4,5-c]pyridine-5(4H)-carboxamide] had a half-maximal inhibitory concentration (IC50) of 0.0442 µM.

In turn, `CCc1cc(O)c(F)cc1-c1ccc2c(-c3nc4c([nH]3)CCN(S(=O)(=O)N(C)C3CCOCC3)C4)n[nH]c2c1` [Example 6(c), 2-(6-(2-ethyl-5-fluoro-4-hydroxyphenyl)-1H-indazol-3-yl)-N-methyl-N-(tetrahydro-2H-pyran-4-yl)-6,7-dihydro-1H-imidazo[4,5-c]pyridine-5(4H)-sulfonamide] had an IC50 in data set [1] of 0.0093 µM. In addition, in data set [2], the “% viability at 1 μg/mL” value is given as 76%.

Regarding `CCc1cc(O)c(F)cc1-c1ccc2c(-c3nc4c([nH]3)CCN(C(=O)N3CCCC3)C4)n[nH]c2c1` [Example 2(d), (2-(6-(2-ethyl-5-fluoro-4-hydroxyphenyl)-1H-indazol-3-yl)-1,4,6,7-tetrahydro-5H-imidazo[4,5-c]pyridin-5-yl)(pyrrolidin-1-yl)methanone], in data set [1], the IC50 was determined as 0.0051 µM.

Consider `CCc1cc(O)c(F)cc1-c1ccc2c(-c3nc4c([nH]3)CCN(S(=O)(=O)N3CCN(C=O)CC3)C4)n[nH]c2c1` [Example 6(h), 4-((2-(6-(2-ethyl-5-fluoro-4-hydroxyphenyl)-1H-indazol-3-yl)-6,7-dihydro-1H-imidazo[4,5-c]pyridin-5(4H)-yl)sulfonyl)piperazine-1-carbaldehyde], for which the IC50 in data set [1] amounted to 0.0374 µM. Moreover, the “% viability at 1 μg/mL” value in data set [2] was found to be 93%.

In the case of `CCc1cc(O)c(F)cc1-c1ccc2c(-c3nc4c([nH]3)CCN(C(=O)NCCOCCOC)C4)n[nH]c2c1` [Example 4(a), 2-(6-(2-ethyl-5-fluoro-4-hydroxyphenyl)-1H-indazol-3-yl)-N-(2-(2-methoxyethoxy)ethyl)-6,7-dihydro-1H-imidazo[4,5-c]pyridine-5(4H)-carboxamide], the IC50 in data set [1] stood at 0.0146 µM. Also, the “% viability at 1 μg/mL” value in data set [2] stood at 60%.
